Values of other authors in US20180100201A1, “TUMOR AND MICROENVIRONMENT GENE EXPRESSION, COMPOSITIONS OF MATTER AND METHODS OF USE THEREOF” (The Broad Institute Inc., priority 2015, published 2018).

Tested on: Factor VII
Conditions: LNP siRNA systems containing these lipids

CCCCC/C=C\C/C=C\CCCCCCCCOCC(CN(C)C)OCCCCCCCC/C=C\C/C=C\CCCCC (stereo not shown) [DLinDMA, 1,2-dilinoleyloxy-3-N,N-dimethylaminopropane]
gene silencing potency in hepatocytes in vivo, series: DLinKC2-DMA>DLinKDMA>DLinDMA>>DLinDAP

1,2-dilinoleyloxy-keto-N,N-dimethyl-3-aminopropane [DLinKDMA]
gene silencing potency in hepatocytes in vivo, series: DLinKC2-DMA>DLinKDMA>DLinDMA>>DLinDAP

CCCCC/C=C\C/C=C\CCCCCCCCC1(CCCCCCCC/C=C\C/C=C\CCCCC)OCC(CCN(C)C)O1 (stereo not shown) [DLinKC2-DMA, 1,2-dilinoleyl-4-(2-dimethylaminoethyl)-[1,3]-dioxolane]
gene silencing potency in hepatocytes in vivo, series: DLinKC2-DMA>DLinKDMA>DLinDMA>>DLinDAP

CCCCC/C=C\C/C=C\CCCCCCCC(=O)OCC(CN(C)C)OC(=O)CCCCCCC/C=C\C/C=C\CCCCC (stereo not shown) [DLinDAP, 1,2-dilineoyl-3-dimethylammonium-propane]
gene silencing potency in hepatocytes in vivo, series: DLinKC2-DMA>DLinKDMA>DLinDMA>>DLinDAP
